Experiments:
[1] = tested on: A549-ACE2 infected with SARS-CoV-2; assay: cell count relative to DMSO; higher = less toxic; conditions: 24 h
Caco-2 [2] = assay: cell viability relative to DMSO; higher = less toxic; conditions: 72 h
Calu-3 [3] = assay: as above; conditions: 72 h
HepG2 [4] = assay: as above; conditions: 72 h
Vero E6 [5] = assay: as above; conditions: 72 h
[6] = tested on: A549-ACE2 infected with SARS-CoV-2; assay: SARS-CoV-2 infection rate relative to DMSO; higher = more infection; conditions: 24 h
A549-ACE2 [7] = assay: phospholipidosis EC50; higher = less potent phospholipidosis inducer
A549-ACE2 [8] = assay: drug-induced phospholipidosis relative to tamoxifen; higher = more phospholipidosis
[9] = tested on: A549-ACE2 infected with SARS-CoV-2; assay: morphology score (similarity to uninfected cells); higher = more like uninfected cells; conditions: 24 h
Caco-2 [10] = assay: relative viability EC50 (midpoint between 100% and the lowest measured viability); higher = less toxic; conditions: 72 h
Calu-3 [11] = assay: as above; conditions: 72 h
HepG2 [12] = assay: as above; conditions: 72 h
Vero E6 [13] = assay: as above; conditions: 72 h
Caco-2 [14] = assay: drug sensitivity score (DSS) for viability; higher = more toxic; extreme values may be limits of the assay; conditions: 72 h
Calu-3 [15] = assay: as above; conditions: 72 h
HepG2 [16] = assay: as above; conditions: 72 h
Vero E6 [17] = assay: as above; conditions: 72 h
U2OS [18] = assay: cell viability relative to DMSO; higher = less toxic; conditions: 72 h
U2OS [19] = assay: drug sensitivity score (DSS) for viability; higher = more toxic; extreme values may be limits of the assay; conditions: 72 h
U2OS [20] = assay: relative viability EC50 (midpoint between 100% and the lowest measured viability); higher = less toxic; conditions: 72 h

Cc1ncc(NC(=O)c2ccc(CN3CCN(C)CC3)c(C(F)(F)F)c2)cc1Nc1nccc(-c2cccnc2)n1 [flumatinib]
Conditions | SARS-CoV-2 infection rate [%] | cell count [%] | cell viability [%] | morphology score | phospholipidosis EC50 [µM]
A549-ACE2 [7], 24 h | – | – | – | – | 3.17
A549-ACE2 [7], 48 h | – | – | – | – | 4.74
A549-ACE2 [7], 72 h | – | – | – | – | 5.39
Caco-2 [2], 1 nM | – | – | 105 | – | –
Caco-2 [2], 10 nM | – | – | 107 | – | –
Caco-2 [2], 100 nM | – | – | 101 | – | –
Caco-2 [2], 1000 nM | – | – | 95.5 | – | –
Caco-2 [2], 10000 nM | – | – | 83.2 | – | –
Calu-3 [3], 1 nM | – | – | 104 | – | –
Calu-3 [3], 10 nM | – | – | 92.7 | – | –
Calu-3 [3], 100 nM | – | – | 102 | – | –
Calu-3 [3], 1000 nM | – | – | 100 | – | –
Calu-3 [3], 10000 nM | – | – | 93.1 | – | –
HepG2 [4], 1 nM | – | – | 96.4 | – | –
HepG2 [4], 10 nM | – | – | 108 | – | –
HepG2 [4], 100 nM | – | – | 102 | – | –
HepG2 [4], 1000 nM | – | – | 93.5 | – | –
HepG2 [4], 10000 nM | – | – | 39.9 | – | –
Vero E6 [5], 1 nM | – | – | 95.8 | – | –
Vero E6 [5], 10 nM | – | – | 101 | – | –
Vero E6 [5], 100 nM | – | – | 99.3 | – | –
Vero E6 [5], 1000 nM | – | – | 97.4 | – | –
Vero E6 [5], 10000 nM | – | – | 84.3 | – | –
[1], 0.3 µM | – | 105 | – | – | –
[1], 3 µM | – | 120 | – | – | –
[1], 10 µM | – | 124 | – | – | –
[1], 30 µM | – | 117 | – | – | –
[6], 0.3 µM | 96 | – | – | – | –
[6], 3 µM | 59 | – | – | – | –
[6], 10 µM | 45 | – | – | – | –
[6], 30 µM | 19 | – | – | – | –
[9], 0.3 µM | – | – | – | 0.25 | –
[9], 3 µM | – | – | – | 0.65 | –
[9], 10 µM | – | – | – | 0.69 | –
[9], 30 µM | – | – | – | 0 | –

drug-induced phospholipidosis [%], A549-ACE2 [8]
Conditions | 0.3 µM | 0.833333 µM | 3.33333 µM | 6.66667 µM | 10 µM | 30 µM
24 h | 4.03 | 13.9 | 49.2 | 98.5 | 106 | 5.86
48 h | 3.51 | 7.4 | 29.5 | 74.1 | 89.4 | –
72 h | 4.57 | 8.79 | 24.7 | 66.2 | 84.5 | –

Conditions | drug sensitivity score | relative viability EC50 [µM]
Caco-2 [10] | – | > 10
Caco-2 [14] | 0.8 | –
Calu-3 [11] | – | > 10
Calu-3 [15] | 0 | –
HepG2 [12] | – | 2.28
HepG2 [16] | 4.3 | –
Vero E6 [13] | – | > 10
Vero E6 [17] | 0.5 | –

CSc1ccc2c(c1)N(CCC1CCCCN1C)c1ccccc1S2 (stereo unspecified) [thioridazine]
Conditions | SARS-CoV-2 infection rate [%] | cell count [%] | cell viability [%] | morphology score | phospholipidosis EC50 [µM]
A549-ACE2 [7], 24 h | – | – | – | – | 3.21
A549-ACE2 [7], 48 h | – | – | – | – | 4.53
A549-ACE2 [7], 72 h | – | – | – | – | 5.9
Caco-2 [2], 1 nM | – | – | 110 | – | –
Caco-2 [2], 10 nM | – | – | 100 | – | –
Caco-2 [2], 100 nM | – | – | 105 | – | –
Caco-2 [2], 1000 nM | – | – | 105 | – | –
Caco-2 [2], 10000 nM | – | – | 69.5 | – | –
Calu-3 [3], 1 nM | – | – | 104 | – | –
Calu-3 [3], 10 nM | – | – | 110 | – | –
Calu-3 [3], 100 nM | – | – | 96.8 | – | –
Calu-3 [3], 1000 nM | – | – | 96.2 | – | –
Calu-3 [3], 10000 nM | – | – | 31.4 | – | –
HepG2 [4], 1 nM | – | – | 105 | – | –
HepG2 [4], 10 nM | – | – | 110 | – | –
HepG2 [4], 100 nM | – | – | 104 | – | –
HepG2 [4], 1000 nM | – | – | 102 | – | –
HepG2 [4], 10000 nM | – | – | 44.5 | – | –
U2OS [18], 1 nM | – | – | 105 | – | –
U2OS [18], 10 nM | – | – | 103 | – | –
U2OS [18], 100 nM | – | – | 102 | – | –
U2OS [18], 1000 nM | – | – | 103 | – | –
U2OS [18], 10000 nM | – | – | 74.7 | – | –
Vero E6 [5], 1 nM | – | – | 106 | – | –
Vero E6 [5], 10 nM | – | – | 103 | – | –
Vero E6 [5], 100 nM | – | – | 104 | – | –
Vero E6 [5], 1000 nM | – | – | 102 | – | –
Vero E6 [5], 10000 nM | – | – | 69.7 | – | –
[1], 0.1 µM | – | 106 | – | – | –
[1], 0.3 µM | – | 104 | – | – | –
[1], 1 µM | – | 110 | – | – | –
[1], 3 µM | – | 121 | – | – | –
[6], 0.1 µM | 94 | – | – | – | –
[6], 0.3 µM | 101 | – | – | – | –
[6], 1 µM | 82 | – | – | – | –
[6], 3 µM | 21 | – | – | – | –
[9], 0.1 µM | – | – | – | 0.31 | –
[9], 0.3 µM | – | – | – | 0.1 | –
[9], 1 µM | – | – | – | 0.34 | –
[9], 3 µM | – | – | – | 0.84 | –

drug-induced phospholipidosis [%], A549-ACE2 [8]
Conditions | 0.3 µM | 0.833333 µM | 3.33333 µM | 6.66667 µM | 10 µM | 30 µM
24 h | 14.9 | 4.83 | 47.8 | 79.3 | 86 | 44.9
48 h | 9.22 | 4.87 | 28.5 | 86.4 | 99.3 | –
72 h | 7.14 | 2.71 | 20 | 83.7 | 117 | –

Conditions | drug sensitivity score | relative viability EC50 [µM]
Caco-2 [14] | 1.1 | –
Calu-3 [11] | – | 2.72
Calu-3 [15] | 4.3 | –
HepG2 [12] | – | 3.36
HepG2 [16] | 2.8 | –
U2OS [19] | 0.8 | –
Vero E6 [17] | 1.2 | –

CCN(CC)CCOc1ccc2c(c1)C(=O)c1cc(OCCN(CC)CC)ccc1-2 [tilorone]
Conditions | SARS-CoV-2 infection rate, [6] [%] | cell count, [1] [%] | cell viability, Caco-2 [2] [%] | cell viability, Calu-3 [3] [%] | cell viability, HepG2 [4] [%] | cell viability, U2OS [18] [%] | cell viability, Vero E6 [5] [%] | morphology score, [9]
1 nM | – | – | 102 | 103 | 98.4 | 103 | 106 | –
10 nM | – | – | 102 | 101 | 93.2 | 104 | 104 | –
0.1 µM | 88 | 102 | – | – | – | – | – | 0.26
100 nM | – | – | 97.1 | 95.7 | 91.3 | 100 | 97.5 | –
0.3 µM | 84 | 106 | – | – | – | – | – | 0.37
1 µM | 77 | 102 | – | – | – | – | – | 0.45
1000 nM | – | – | 95 | 96.6 | 96.8 | 95.9 | 100 | –
3 µM | 46 | 108 | – | – | – | – | – | 0.5
10000 nM | – | – | 78.4 | 78.8 | 15.8 | 98.9 | 35.2 | –

drug-induced phospholipidosis [%], A549-ACE2 [8]
Conditions | 0.3 µM | 0.833333 µM | 3.33333 µM | 6.66667 µM | 10 µM | 30 µM
24 h | -3.79 | -6.82 | -21.7 | -22.6 | -23.9 | -27.5
48 h | 2.58 | -4.68 | -11.7 | -11.1 | -10 | -8.85
72 h | 3.61 | -1.19 | -2.58 | 0.944 | -0.898 | –

Conditions | drug sensitivity score | relative viability EC50 [µM]
Caco-2 [10] | – | > 10
Caco-2 [14] | 1.3 | –
Calu-3 [11] | – | > 10
Calu-3 [15] | 1.2 | –
HepG2 [12] | – | 2.87
HepG2 [16] | 5.1 | –
U2OS [19] | 0 | –
U2OS [20] | – | > 10
Vero E6 [13] | – | 3.19
Vero E6 [17] | 3.5 | –

From the supplement of paper PMC13380429
